For one assay, the target named is T1, LasR (Pseudomonas aeruginosa, UniProt P25084).
T1 construct: expressed in transfected cells; host or cells: E. coli DH5α (printed DHSα) co-transformed with pJN105L and pSC11
Put plainly: LasR reporter gene assay (E. coli reporter strain, luminescence, competition with OdDHL). To be noted: compound 1 μM or 10 μM in the presence of 1 μM OdDHL (compound 1a). Format: cell-based. The procedure:
This assay was conducted by modifying a previously reported method. E. coli DHSα co-transformed with two plasmids, pJN105L (LasR expression plasmid) and pSC11 (lasI::lacZ fusion plasmid), was used as a bioassay reporter strain. Overnight culture of the reporter strain with 10 μg/mL gentamicin and 50 μg/mL ampicillin was diluted in the Luria-Bertani (LB) medium (1:100). Then, the reporter strain (optical density at 595 nm [OD595] was 0.3) mixed with either a positive control or the synthesized compound was incubated with OdDHL (Sigma-Aldrich, St. Louis, MO., USA) and 0.4% arabinose (Sigma-Aldrich). After incubation at 37° C. for 1.5 h, OD595 was measured on a VICTOR ×5 multimode plate reader (PerkinElmer, Waltham, Mass., USA). The β-galactosidase activity was determined using a Tropix plus kit (Applied Biosystems, USA), and luminescence was measured on the VICTOR ×5 multimode plate reader. RLU ratio was quantified by dividing luminescence with OD595.
LasR-binding affinity of the synthesized gingerols (compounds 4-10) with various alkyl chain lengths was determined by measuring luminescence of an E. coli reporter strain. The reporter strain carried two plasmids, pJN105L (LasR expression plasmid) (Lee, J. H.; Lequette, Y.; Greenberg, E. P. Activity of purified QscR, a Pseudomonas aeruginosa orphan quorum-sensing transcription factor. Mol. Microbiol. 2006, 59, 602609.) and pSC11 (las1::lacZ fusion plasmid) (Chugani, S. A.; Whiteley, M.; Lee, K. M.; D'Argenio, D.; Manoil, C.; Greenberg, E. P. QscR, a modulator of quorum-sensing signal synthesis and virulence in Pseudomonas aeruginosa. Proc. Natl. Acad. Sci. U.S.A. 2001, 98, 27522757.), which enabled assay of competitive binding of OdDHL with each gingerol derivative 4-10. Antagonistic activities of the synthesized compounds at 1 μM or 10 μM were determined by measuring luminescence in the presence of 1 μM OdDHL (compound 1a) and presented as relative luminescence unit (RLU) ratio. Three compounds (compounds 1b, 1c, and 1d) served as positive controls. […] Just as the LasR inhibition, inhibition of biofilm formation also strengthened as the carbon chain was extended at 10 μM ((B) of FIG. 3). However, inhibition of biofilm formation decreased with 9-gingerol (compound 9) and 10-gingerol (compound 10) at 100 μM ((C) of FIG. 3) because of increased bacterial growth inhibition. […] This effect may be due to the fact that compounds 9 and 10 act as a surfactant, which inhibits bacterial growth. Agonistic activities of compounds 4-10 in an E. coli reporter assay system in the absence of OdDHL were next examined.

A further assay concerns P. aeruginosa PA14. Nature of the assay: Static biofilm formation assay. The conditions noted are these: 10 μM, 24 h, static. Format: cell-based, Pseudomonas aeruginosa. The procedure:
Overnight culture of P. aeruginosa PA14 (OD595=1.0) was diluted (1:20) with the AB medium (300 mM NaCl, 50 mM MgSO4, 0.2% vitamin-free casamino acids, 10 mM potassium phosphate, 1 mM L-arginine, and 1% glucose, pH 7.5) (1:20) containing with either positive controls or synthesized compounds (0-100 μM). The dilutions were aliquoted into borosilicate bottles, and the bottles were incubated at 37° C. for 24 h without agitation. After that, OD595 of the cell suspension was measured on the VICTOR ×5 multimode plate reader. The biofilm cells attached to the bottle were washed two times with phosphate buffered saline (PBS; 137 mM NaCl, 2.7 mM KCl, 10 mM Na2HPO4, and 2 mM KH2PO4, pH 7.2) and stained with 0.1% crystal violet for […] Next, the stained biofilm cells were eluted with 100% ethyl alcohol, and OD540 was measured on the VICTOR ×5 multimode plate reader. The biofilm formation was quantified by dividing OD540 with OD595.

Consider 20 compounds from patent US11964935B2, “Gingerol derivative having inhibitory activity against biofilm formation and pharmaceutical composition comprising same as effective ingredient for preventing or treating biofilm-caused infection symptom” (Korea University Research and Business Foundation, Sejong …, priority 2017, dated 2024).

Each structure is given as a SMILES string. “Also recorded” adds a separate entry of the source.

T1 sequence (P25084 whole entry): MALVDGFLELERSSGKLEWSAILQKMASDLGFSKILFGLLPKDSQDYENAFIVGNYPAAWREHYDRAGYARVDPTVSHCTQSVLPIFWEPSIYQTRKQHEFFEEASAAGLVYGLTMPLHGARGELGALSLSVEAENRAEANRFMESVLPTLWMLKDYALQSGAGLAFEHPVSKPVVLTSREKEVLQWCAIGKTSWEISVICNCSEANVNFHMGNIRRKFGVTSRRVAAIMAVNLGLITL

`CCCCCC(O)CC(=O)CCc1ccc(O)c(OC)c1` (racemic) [Compound 6, 5-Hydroxy-1-(4-hydroxy-3-methoxyphenyl)decan-3-one]: the “LasR-antagonistic activity / LasR-binding affinity (RLU ratio), in words” value on LasR is recorded as “slightly more potent”. The same measure, in the same setting: for `CCCCCCCC(O)CC(=O)CCc1ccc(O)c(OC)c1` (racemic) [Compound 8, 5-Hydroxy-1-(4-hydroxy-3-methoxyphenyl)dodecan-3-one] the value was “slightly more potent”. Still for that read-out and setting: then `CCCCCCCC(O)CC(=O)/C=C/c1ccc(O)c(OC)c1` (racemic) [Compound 21b, (E)-5-Hydroxy-1-(4-hydroxy-3-methoxyphenyl)dodec-1-en-3-one], with “slightly stronger LasR affinity; also recorded: more potent than compound 1c”; and `CCCCCC(O)CC(=O)CCc1ccccc1` (centres unmarked) [Compound 15a, 5-Hydroxy-1-phenyldecan-3-one], with “significantly decreased the LasR-antagonistic activity”; and `CCCCCCCC(O)CC(=O)CCc1ccccc1` (centres unmarked) [Compound 15b, 5-Hydroxy-1-phenyldodecan-3-one], with “relatively weaker than those of the other compounds”. Turning to `CCCCCC(O)CC(=O)CCc1ccc(F)c(OC)c1` (centres unmarked) [Compound 16a, 1-(4-Fluoro-3-methoxyphenyl)-5-hydroxydecan-3-one], the “Inhibition of biofilm formation, in words” value (“Inhibition” for short) with P. aeruginosa PA14 is reported as “the most potent in the series”. The “LasR-antagonistic activity / LasR-binding affinity (RLU ratio), in words” value on LasR was “preserved the LasR-inhibitory activity”.

`CCCCCCCC(O)CC(=O)CCc1ccc(F)c(OC)c1` (centres unmarked) [Compound 16b, 1-(4-Fluoro-3-methoxyphenyl)-5-hydroxydodecan-3-one]: the “Inhibition” value with P. aeruginosa PA14 is reported as “the most potent in the series; also recorded: stronger inhibition of biofilm formation than the known anti-biofilm agent (S)-6-gingerol”. For the compound `CCCCCC(O)CC(=O)CCc1ccc(F)cc1` (centres unmarked) [Compound 17a, 1-(4-Fluorophenyl)-5-hydroxydecan-3-one], the “Inhibition” value in the assay on P. aeruginosa PA14 is on record as “the most potent in the series”. The “LasR-antagonistic activity / LasR-binding affinity (RLU ratio), in words” value on LasR is “preserved the LasR-inhibitory activity”. The like results for `CCCCCCCC(O)CC(=O)CCc1ccc(F)cc1` (centres unmarked) [Compound 17b, 1-(4-Fluorophenyl)-5-hydroxydodecan-3-one] were, in that order, “the most potent in the series; also recorded: stronger inhibition of biofilm formation than the known anti-biofilm agent (S)-6-gingerol” and “the most potent among the synthesized compounds”. Taken in the same sequence, the figures for `CCCCCC(O)CC(=O)CCc1ccc(O)cc1` (centres unmarked) [Compound 18a, 5-Hydroxy-1-(4-hydroxyphenyl)decan-3-one] were “the most potent in the series” and “increased the LasR-antagonistic activity”. As for `CCCCCCCC(O)CC(=O)CCc1ccc(O)cc1` (centres unmarked) [Compound 18b, 5-Hydroxy-1-(4-hydroxyphenyl)dodecan-3-one], the “Inhibition” value with P. aeruginosa PA14 is given as “the most potent in the series; also recorded: stronger inhibition of biofilm formation than the known anti-biofilm agent (S)-6-gingerol”. Besides, the “LasR-antagonistic activity / LasR-binding affinity (RLU ratio), in words” value on LasR is given as “the most potent among the synthesized compounds”. Turning to `CCCCCC(O)CC(=O)CCc1cccc(OC)c1` (centres unmarked) [Compound 20a, 5-Hydroxy-1-(3-methoxyphenyl)decan-3-one], at LasR, the “LasR-antagonistic activity / LasR-binding affinity (RLU ratio), in words” value is given as “decreased the LasR-antagonistic activity”. On the same count and under the same terms, for `CCCCCCCC(O)CC(=O)CCc1cccc(OC)c1` (centres unmarked) [Compound 20b, 5-Hydroxy-1-(3-methoxyphenyl)dodecan-3-one] the value was “relatively weaker than those of the other compounds”; for `CCCCCC(O)CC(=O)/C=C/c1ccc(O)c(OC)c1` (centres unmarked) [Compound 21a, (E)-5-Hydroxy-1-(4-hydroxy-3-methoxyphenyl)dec-1-en-3-one], “slightly stronger LasR affinity”. As to `CCCCCCCC(=O)/C=C/c1ccc(O)c(OC)c1` [Compound 23a, (E)-1-(4-Hydroxy-3-methoxyphenyl)dec-1-en-3-one], the “Inhibition” value with P. aeruginosa PA14 is on record as “less inhibition of biofilm formation”. Besides, the “LasR-antagonistic activity / LasR-binding affinity (RLU ratio), in words” value on LasR is listed as “significantly weaker LasR-binding affinity”. Turning to `CCCCCCCCCC(=O)/C=C/c1ccc(O)c(OC)c1` [Compound 23b, (E)-1-(4-Hydroxy-3-methoxyphenyl)dodec-1-en-3-one], the “Inhibition” value with P. aeruginosa PA14 was “less inhibition of biofilm formation”. For the same compound, the “LasR-antagonistic activity / LasR-binding affinity (RLU ratio), in words” value on LasR is “significantly weaker LasR-binding affinity”.

Regarding `CCCCCCCC(=O)CCc1ccc(O)c(OC)c1` [Compound 24a, 1-(4-Hydroxy-3-methoxyphenyl)decan-3-one], the “Inhibition” value in the assay on P. aeruginosa PA14 is given as “less inhibition of biofilm formation”. The “LasR-antagonistic activity / LasR-binding affinity (RLU ratio), in words” value at LasR is “significantly weaker LasR-binding affinity”. Taken in the same sequence, the figures for `CCCCCCCCCC(=O)CCc1ccc(O)c(OC)c1` [Compound 24b, 1-(4-Hydroxy-3-methoxyphenyl)dodecan-3-one] were “less inhibition of biofilm formation” and “significantly weaker LasR-binding affinity”. Regarding `CCCCCCC[C@@H](O)CC(=O)CCc1ccc(O)c(OC)c1` [Compound 29, (R)-5-Hydroxy-1-(4-hydroxy-3-methoxyphenyl)dodecan-3-one], the “LasR-antagonistic activity / LasR-binding affinity (RLU ratio), in words” value at LasR was “intermediate LasR-affinity between compound 8 and compound 42”. On the same count and under the same terms, for `CCCCCCCC(O)CC(=O)CCc1ccc(O)c(OC)c1` [Compound 42S, (S)-8-gingerol] the value was “almost the same as that of commercial (S)-8-gingerol”.
